One assay concerns the target T1, human recombinant HDAC1 (Homo sapiens, UniProt Q13547).
T1 construct: purchased Enzo Life Sciences, Inc. BML-SE456
Briefly: In vitro HDAC enzyme activity inhibition assay, HDAC1 (HDAC Fluorimetric Drug Discovery Kit). Type of assay: biochemical. The following applies: human recombinant HDAC1, Fluor de Lys-SIRT1 substrate 10 μM, 30° C. for 60 minutes. In a few lines: (§1)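 Both HDAC1 and HDAC6 (human recombinant, 0.3 μg) tested identically: 10 μM fluorogenic Fluor de Lys-SIRT1 substrate, reaction 60 min at 30° C, developer added for 30 min. IC50 calculated from Ex 360/Em 460 signal over 5-fold serial dilutions.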

For a further assay, the target named is T2, human recombinant HDAC6 (Homo sapiens, UniProt Q9UBN7).
T2 construct: purchased Calbiochem Inc. 382180
T2 sequence (Q9UBN7 1-1215): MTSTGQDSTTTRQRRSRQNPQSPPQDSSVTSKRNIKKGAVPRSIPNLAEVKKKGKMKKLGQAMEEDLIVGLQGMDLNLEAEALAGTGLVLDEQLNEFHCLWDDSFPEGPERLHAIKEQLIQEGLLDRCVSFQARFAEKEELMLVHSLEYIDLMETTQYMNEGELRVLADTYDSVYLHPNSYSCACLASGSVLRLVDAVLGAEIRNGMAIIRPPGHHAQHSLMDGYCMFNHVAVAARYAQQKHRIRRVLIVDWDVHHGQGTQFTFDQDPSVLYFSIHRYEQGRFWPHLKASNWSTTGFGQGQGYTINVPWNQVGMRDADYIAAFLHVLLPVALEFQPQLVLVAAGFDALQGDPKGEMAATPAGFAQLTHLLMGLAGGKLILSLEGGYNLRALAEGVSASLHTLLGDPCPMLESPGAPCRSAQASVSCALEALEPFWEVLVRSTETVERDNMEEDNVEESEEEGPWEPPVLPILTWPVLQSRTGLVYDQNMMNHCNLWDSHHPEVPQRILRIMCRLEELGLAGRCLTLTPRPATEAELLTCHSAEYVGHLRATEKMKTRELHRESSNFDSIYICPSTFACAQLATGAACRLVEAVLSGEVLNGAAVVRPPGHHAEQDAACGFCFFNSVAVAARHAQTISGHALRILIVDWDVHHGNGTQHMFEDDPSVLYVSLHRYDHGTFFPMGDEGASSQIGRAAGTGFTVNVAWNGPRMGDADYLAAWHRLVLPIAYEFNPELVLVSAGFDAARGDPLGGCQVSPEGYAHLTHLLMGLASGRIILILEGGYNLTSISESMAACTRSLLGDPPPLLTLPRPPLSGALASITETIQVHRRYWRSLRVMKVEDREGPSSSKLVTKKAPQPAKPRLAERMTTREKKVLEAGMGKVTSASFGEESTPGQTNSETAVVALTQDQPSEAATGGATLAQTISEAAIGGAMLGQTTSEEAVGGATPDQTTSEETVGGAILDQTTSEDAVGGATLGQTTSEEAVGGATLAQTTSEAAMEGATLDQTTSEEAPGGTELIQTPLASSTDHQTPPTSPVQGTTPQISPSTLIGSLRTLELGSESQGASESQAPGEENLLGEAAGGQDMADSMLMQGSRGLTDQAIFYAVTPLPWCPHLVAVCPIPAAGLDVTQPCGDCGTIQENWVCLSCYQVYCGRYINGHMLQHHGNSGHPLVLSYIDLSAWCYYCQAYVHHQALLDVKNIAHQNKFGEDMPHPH
The assay is described as follows: In vitro HDAC enzyme activity inhibition assay, HDAC6 (HDAC Fluorimetric Drug Discovery Kit). Type of assay: biochemical. The note with it: for HDAC6 Selectivity (fold): HDAC6 versus HDAC1; for IC50: human recombinant HDAC6, same protocol as the HDAC1 test. In a few lines:
as §1

T1 sequence (Q13547 whole entry): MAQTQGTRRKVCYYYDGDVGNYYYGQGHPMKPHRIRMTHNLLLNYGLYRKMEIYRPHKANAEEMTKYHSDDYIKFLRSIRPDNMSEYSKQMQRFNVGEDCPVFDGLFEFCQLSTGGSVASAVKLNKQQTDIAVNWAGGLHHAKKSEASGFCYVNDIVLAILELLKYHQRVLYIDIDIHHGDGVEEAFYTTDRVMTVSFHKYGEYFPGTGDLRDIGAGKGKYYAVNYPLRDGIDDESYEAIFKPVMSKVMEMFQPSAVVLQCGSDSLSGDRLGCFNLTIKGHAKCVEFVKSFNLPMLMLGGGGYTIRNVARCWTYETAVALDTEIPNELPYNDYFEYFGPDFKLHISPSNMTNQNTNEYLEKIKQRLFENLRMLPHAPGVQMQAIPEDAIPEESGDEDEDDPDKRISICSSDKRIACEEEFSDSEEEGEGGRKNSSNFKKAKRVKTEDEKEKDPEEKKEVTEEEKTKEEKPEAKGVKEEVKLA

What is called IC50 is the concentration at which inhibition is half-maximal. Take `O=C(C1COC1)N1CCC(C(=O)N(Cc2cn3ccc(-c4nnc(C(F)F)o4)cc3n2)c2ccccc2)CC1` [Compound 4126, N-((7-(5-(difluoromethyl)-1,3,4-oxadiazol-2-yl)imidazo[1,2-a]pyridin-2-yl)methyl)-1-(oxetan-3-carbonyl)-N-phenylpiperidine-4-carboxamide]: the results for the IC50 on human recombinant HDAC1 and at human recombinant HDAC6 were over 50000 nM and 404 nM, respectively. On human recombinant HDAC6, the “HDAC6 Selectivity (fold)” value is listed as 124 fold.

As for `O=C(C1CN(C(=O)C(F)(F)F)C1)N(Cc1cn2ccc(-c3nnc(C(F)F)o3)cc2n1)c1ccccc1` [Compound 4172, N-((7-(5-(difluoromethyl)-1,3,4-oxadiazol-2-yl)imidazo[1,2-a]pyridin-2-yl)methyl)-N-phenyl-1-(2,2,2-trifluoroacetyl) azetidine-3-carboxamide], the IC50 at human recombinant HDAC1 is over 50000 nM; on human recombinant HDAC6, 272 nM. Moreover, the “HDAC6 Selectivity (fold)” value on human recombinant HDAC6 amounted to 184 fold.

Take `O=C(C1CCN(C2COC2)CC1)N(Cc1cn2ccc(-c3nnc(C(F)F)o3)cc2n1)c1cccc(F)c1` [Compound 4142, N-((7-(5-(difluoromethyl)-1,3,4-oxadiazol-2-yl)imidazo[1,2-a]pyridin-2-yl)methyl)-N-(3-fluorophenyl)-1-(oxetan-3-yl)piperidine-4-carboxamide]: the IC50 on human recombinant HDAC1 is over 50000 nM. Moreover, at human recombinant HDAC6, the “HDAC6 Selectivity (fold)” value worked out at 234 fold and the IC50 is 214 nM.

On to `CC(=O)N1CC(C(=O)N(Cc2cn3ccc(-c4nnc(C(F)F)o4)cc3n2)c2ccccc2)C1` [Compound 4167, 1-acetyl-N-((7-(5-(difluoromethyl)-1,3,4-oxadiazol-2-yl)imidazo[1,2-a]pyridine-2-yl)methyl)-N-phenylazetidine-3-carboxamide], for which the values for the IC50 at human recombinant HDAC1 and on human recombinant HDAC6 were over 50000 nM and 447 nM, respectively. For the same molecule, the “HDAC6 Selectivity (fold)” value at human recombinant HDAC6 was 112 fold.

As to `FC(F)c1nnc(-c2ccn3cc(CNC45CC6CC(CC(C6)C4)C5)nc3c2)o1` [Compound 3677, (3s,5s,7s)-N-((7-(5-(difluoromethyl)-1,3,4-oxadiazol-2-yl)imidazo[1,2-a]pyridin-2-yl)methyl)adamantane-1-amine], the 50% inhibitory concentration (IC50) at human recombinant HDAC1 was over 50000 nM. On human recombinant HDAC6, the “HDAC6 Selectivity (fold)” value stood at 196 fold and the IC50 worked out at 255 nM.

For the molecule `O=C(C1CN(c2ccccn2)C1)N(Cc1cn2ccc(-c3nnc(C(F)F)o3)cc2n1)c1ccccc1` [Compound 4176, N-((7-(5-(difluoromethyl)-1,3,4-oxadiazol-2-yl)imidazo[1,2-a]pyridin-2-yl)methyl)-N-phenyl-1-(pyridin-2-yl) azetidine-3-carboxamide], the IC50 at human recombinant HDAC1 was over 50000 nM; at human recombinant HDAC6 it was 251 nM. In addition, at human recombinant HDAC6, the “HDAC6 Selectivity (fold)” value came to 199 fold.

Turning to `FC(F)c1nnc(-c2ccn3cc(Cc4ccc(C(F)(F)F)cc4)nc3c2)o1` [Compound 3591], the results for the IC50 on human recombinant HDAC1 and on human recombinant HDAC6 were over 50000 nM and 1060 nM, respectively. Further, the “HDAC6 Selectivity (fold)” value at human recombinant HDAC6 worked out at 47 fold.

For the molecule `O=C(C1CCN(C2CCC(F)(F)CC2)CC1)N(Cc1cn2ccc(-c3nnc(C(F)F)o3)cc2n1)c1cccc(F)c1` [Compound 4145, 1-(4,4-difluorocyclohexyl)-N-((7-(5-(difluoromethyl)-1,3,4-oxadiazol-2-yl)imidazo[1,2-a]pyridin-2-yl)methyl)-N-(3-fluorophenyl)piperidine-4-carboxamide], the IC50 on human recombinant HDAC1 is over 50000 nM. In addition, at human recombinant HDAC6, the “HDAC6 Selectivity (fold)” value came out at 217 fold and the IC50 stood at 230 nM.

`FC(F)c1nnc(-c2ccn3cc(Cc4ccccc4)nc3c2)o1` [Compound 3009, 2-(2-benzylimidazo[1,2-a]pyridin-7-yl)-5-(difluoromethyl)-1,3,4-oxadiazole]: the IC50 was over 50000 nM on human recombinant HDAC1 and 79.2 nM at human recombinant HDAC6. Besides, the “HDAC6 Selectivity (fold)” value on human recombinant HDAC6 amounted to 631 fold.

For the molecule `CN1CCC(C(=O)N(Cc2cn3ccc(-c4nnc(C(F)F)o4)cc3n2)c2ccccc2)CC1` [Compound 3782, N-((7-(5-(difluoromethyl)-1,3,4-oxadiazol-2-yl)imidazo[1,2-a]pyridin-2-yl)methyl)-1-methyl-N-phenylpiperidine-4-carboxamide], the IC50 at human recombinant HDAC1 is over 50000 nM. For the same molecule, on human recombinant HDAC6, the “HDAC6 Selectivity (fold)” value is 740 fold and the IC50 was found to be 67.6 nM.

For the molecule `O=C(C1CCN(C(=O)C(F)(F)F)CC1)N(Cc1cn2ccc(-c3nnc(C(F)F)o3)cc2n1)c1cccc(F)c1` [Compound 4152, N-((7-(5-(difluoromethyl)-1,3,4-oxadiazol-2-yl)imidazo[1,2-a]pyridin-2-yl)methyl)-N-(3-fluorophenyl)-1-(2,2,2-trifluoroacetyl)piperidine-4-carboxamide], the IC50 on human recombinant HDAC1 is over 50000 nM. In addition, on human recombinant HDAC6, the “HDAC6 Selectivity (fold)” value was determined as 245 fold and the IC50 came out at 204 nM.

For `O=C(N1CCN(c2ccccn2)CC1)N(Cc1cn2ccc(-c3nnc(C(F)F)o3)cc2n1)c1ccccc1` [Compound 4048, N-((7-(5-(difluoromethyl)-1,3,4-oxadiazol-2-yl)imidazo[1,2-a]pyridin-2-yl)methyl)-N-phenyl-4-(pyridin-2-yl)piperazine-1-carboxamide], the IC50 on human recombinant HDAC1 was over 50000 nM. On human recombinant HDAC6, the “HDAC6 Selectivity (fold)” value is on record as 203 fold and the IC50 is 247 nM.

In the case of `Fc1ccc(Cc2cn3ccc(-c4nnc(C(F)F)o4)cc3n2)cc1` [Compound 3586, 2-(difluoromethyl)-5-(2-(4-fluorobenzyl)imidazo[1,2-a]pyridin-7-yl)-1,3,4-oxadiazole], the IC50 at human recombinant HDAC1 was over 50000 nM. Besides, at human recombinant HDAC6, the “HDAC6 Selectivity (fold)” value was 151 fold and the IC50 came to 330 nM.

Take `CC(CO)N1CCC(C(=O)N(Cc2cn3ccc(-c4nnc(C(F)F)o4)cc3n2)c2ccccc2)CC1` (stereo not drawn) [Compound 4117, N-((7-(5-(difluoromethyl)-1,3,4-oxadiazol-2-yl)imidazo[1,2-a]pyridin-2-yl)methyl)-1-(1-hydroxypropan-2-yl)-N-phenylpiperidine-4-carboxamide]: the IC50 at human recombinant HDAC1 is over 50000 nM. Further, on human recombinant HDAC6, the “HDAC6 Selectivity (fold)” value came out at 133 fold and the IC50 was 377 nM.

For `FC(F)c1nnc(-c2ccn3cc(CNC4CCCCC4)nc3c2)o1` [Compound 3678, N-((7-(5-(difluoromethyl)-1,3,4-oxadiazol-2-yl)imidazo[1,2-a]pyridin-2-yl)methyl)cyclohexanamine], the IC50 at human recombinant HDAC1 is over 50000 nM. On human recombinant HDAC6, the “HDAC6 Selectivity (fold)” value is 170 fold and the IC50 was 294 nM.

As for `O=C(C1CCN(C2CCCCC2)CC1)N(Cc1cn2ccc(-c3nnc(C(F)F)o3)cc2n1)c1ccccc1` [Compound 4119, 1-cyclohexyl-N-((7-(5-(difluoromethyl)-1,3,4-oxadiazol-2-yl)imidazo[1,2-a]pyridin-2-yl)methyl)-N-phenylpiperidine-4-carboxamide], the IC50 on human recombinant HDAC1 was over 50000 nM. At human recombinant HDAC6, the “HDAC6 Selectivity (fold)” value is reported as 124 fold and the IC50 was 402 nM.

As for `CC(=O)N1CCC(C(=O)N(Cc2cn3ccc(-c4nnc(C(F)F)o4)cc3n2)c2ccccc2)CC1` [Compound 4122, 1-acetyl-N-((7-(5-(difluoromethyl)-1,3,4-oxadiazol-2-yl)imidazo[1,2-a]pyridin-2-yl)methyl)-N-phenylpiperidine-4-carboxamide], the IC50 on human recombinant HDAC1 is over 50000 nM; at human recombinant HDAC6, 353 nM. The “HDAC6 Selectivity (fold)” value at human recombinant HDAC6 is given as 142 fold.

With `CN1CCC(C(=O)N(Cc2cn3ccc(-c4nnc(C(F)F)o4)cc3n2)c2cccc(F)c2)CC1` [Compound 4137, N-((7-(5-(difluoromethyl)-1,3,4-oxadiazol-2-yl)imidazo[1,2-a]pyridin-2-yl)methyl)-N-(3-fluorophenyl)-1-methylpiperidine-4-carboxamide], at human recombinant HDAC1, the IC50 is over 50000 nM. Also, on human recombinant HDAC6, the “HDAC6 Selectivity (fold)” value turned out to be 283 fold and the IC50 was 177 nM.

In the case of `FC(F)c1nnc(-c2ccn3cc(CNc4ccccc4)nc3c2)o1` [Compound 3668, N-((7-(5-(difluoromethyl)-1,3,4-oxadiazol-2-yl)imidazo[1,2-a]pyridin-2-yl)methyl)aniline], on human recombinant HDAC1, the IC50 is over 50000 nM. On human recombinant HDAC6, the “HDAC6 Selectivity (fold)” value is given as 299 fold and the IC50 was 167 nM.

Values taken from patent publication US12522601B2, “1,3,4-oxadiazole derivative compounds as histone deacetylase 6 inhibitor, and the pharmaceutical composition comprising the same” (CHONG KUN DANG PHARMACEUTICAL CORP., priority 2020, dated 2026).
